19 compounds from ChEMBL document CHEMBL2331209, “Mechanistic studies of the inactivation of tyrosinase by resorcinol” (Bioorg Med Chem, 2013) can be followed below.

Test [1] has as its target T1, Tyrosinase (Homo sapiens) (UniProt P14679).
T1 sequence (whole entry): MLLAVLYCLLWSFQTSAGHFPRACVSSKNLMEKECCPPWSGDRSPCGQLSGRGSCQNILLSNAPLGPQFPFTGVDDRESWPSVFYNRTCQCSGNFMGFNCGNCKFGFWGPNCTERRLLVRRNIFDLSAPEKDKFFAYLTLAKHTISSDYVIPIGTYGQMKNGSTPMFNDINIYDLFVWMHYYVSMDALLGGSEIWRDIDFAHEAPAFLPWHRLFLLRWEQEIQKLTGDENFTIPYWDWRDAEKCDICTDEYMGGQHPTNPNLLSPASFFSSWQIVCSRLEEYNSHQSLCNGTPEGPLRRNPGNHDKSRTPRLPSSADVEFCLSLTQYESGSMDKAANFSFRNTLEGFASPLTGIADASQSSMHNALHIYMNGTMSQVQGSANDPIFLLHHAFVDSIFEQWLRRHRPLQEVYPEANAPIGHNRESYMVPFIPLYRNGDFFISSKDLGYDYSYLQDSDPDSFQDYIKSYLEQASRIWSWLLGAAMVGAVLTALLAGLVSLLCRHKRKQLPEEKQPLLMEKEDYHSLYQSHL
Kind of test: Inactivation of tyrosinase (unknown origin) assessed as decay half-life using 4-methylcatechol substrate at 850 uM equimolar concentrations resorcinol by spectrophotometry.

Test [2] deals with T1, Tyrosinase (Homo sapiens). Briefly: Inactivation of tyrosinase (unknown origin) assessed as initial rate of oxygen utilization at absorbance 400 nm using 4-methylcatechol substrate at 850 uM equimolar concentrations resorcinol by spectrophotometry.
The target of test [3] is T1, Tyrosinase (Homo sapiens). Kind of test: Inactivation of tyrosinase (unknown origin) assessed as initial rate of oxygen utilization using 4-methylcatechol substrate at 850 uM equimolar concentrations resorcinol by spectrophotometry.
Test [4] addresses T1, Tyrosinase (Homo sapiens). Kind of test: Inactivation of tyrosinase (unknown origin) assessed as total oxygen uptake using 4-methylcatechol substrate at 850 uM equimolar concentrations resorcinol by spectrophotometry.
The target of test [5] is T1, Tyrosinase (Homo sapiens). Briefly: Inactivation of tyrosinase (unknown origin) assessed as decay half-life using 4-methylcatechol substrate at 850 uM by spectrophotometry.
The target of test [6] is T1, Tyrosinase (Homo sapiens). Kind of test: Inactivation of tyrosinase (unknown origin) assessed as initial rate of oxygen utilization using 4-methylcatechol substrate at 850 uM by spectrophotometry.
For test [7], the target named is T1, Tyrosinase (Homo sapiens). Kind of test: Inactivation of tyrosinase (unknown origin) assessed as total oxygen uptake using 4-methylcatechol substrate at 850 uM by spectrophotometry.
Test [8] addresses T1, Tyrosinase (Homo sapiens). Briefly: Inactivation of tyrosinase (unknown origin) assessed as initial rate of oxygen utilization at absorbance 400 nm using 4-methylcatechol substrate at 850 uM by spectrophotometry.

On to `Cc1cc(O)c(C)c(O)c1`, for which the Decay half-life in test [1] amounted to 82%. For the same compound, the Activity stood at 103% in test [2], 97% in test [3] and 117% in test [4].

In the case of `Oc1cc(O)c(Cl)cc1Cl`, the Decay half-life in test [1] was 160%. The Activity in test [2] is 22%; in test [3], 29%; in test [4] it was 33%.

As for `Oc1cccc(O)c1F`, the Decay half-life in test [1] worked out at 68%. Moreover, the values for the Activity in test [2], in test [3] and in test [4] were 40%, 33% and 35%, respectively.

Consider `Oc1cc(O)c(F)cc1F`, for which the Decay half-life in test [1] was 83%. The Activity in test [2] turned out to be 30%; in test [3], 30%; in test [4], 29%.

As to `Oc1cc(O)cc(O)c1`, in test [1], the Decay half-life turned out to be 81%. For the same compound, the Activity in test [2] was 133%; in test [3], 95%; in test [4], 75%.

On to `Oc1cccc(O)c1O`, for which the Activity in test [2], in test [3] and in test [4] was 100% throughout.

Regarding `COc1cc(O)cc(O)c1`, the Decay half-life in test [1] was 22%. For the same compound, the Activity came out at 62% in test [2], 64% in test [3] and 26% in test [4].

In the case of `Oc1c(Cl)cc(Cl)c(O)c1Cl`, the Decay half-life in test [1] is 73%. The Activity in test [2] turned out to be 105%; in test [3], 110%; in test [4] it was 86%.

Turning to `Oc1ccc(F)c(O)c1`, the Activity in test [2] is 10%; in test [3] it was 6%; in test [4], 0%.

For the compound `Oc1cccc(O)c1`, the Activity was 75% in test [5], 32% in test [6], 37% in test [7] and 26% in test [8].

Consider `Oc1cc(O)cc(F)c1`, for which the Decay half-life in test [1] is 122%. In addition, the Activity in test [2] was found to be 46%; in test [3], 67%; in test [4], 52%.

As to `Oc1ccc(F)c(O)c1F`, in test [1], the Decay half-life is 48%. For the same compound, the Activity is 28% in test [2], 18% in test [3] and 30% in test [4].

Consider `Oc1c(F)c(O)c(F)c(F)c1F`, for which the Decay half-life in test [1] was found to be 97%. The results for the Activity in test [2], in test [3] and in test [4] were 86%, 91% and 75%, respectively.

For the compound `CCc1ccc(O)cc1O`, the values for the Activity in test [2], in test [3] and in test [4] were under 1%, 1% and 0%, respectively.

For the compound `Cc1c(O)cccc1O`, in test [1], the Decay half-life was 82%. For the same compound, the values for the Activity in test [2], in test [3] and in test [4] were 103%, 105% and 90%, respectively.

Turning to `Cc1cc(O)cc(O)c1`, in test [1], the Decay half-life came to 31%. In addition, the Activity in test [2] is 46%; in test [3], 63%; in test [4] it was 28%.

Regarding `Cc1cc(C)c(O)cc1O`, the Decay half-life in test [1] was 193%. Further, the figures for the Activity in test [2], in test [3] and in test [4] were 57%, 46% and 69%, respectively.

In the case of `Oc1cc(F)cc(O)c1F`, in test [1], the Decay half-life was determined as 74%. For the same compound, the Activity in test [2] was 51%; in test [3] it was 41%; in test [4], 31%.

On to `Oc1cccc(O)c1Cl`, for which the Decay half-life in test [1] is 72%. Besides, the Activity in test [2] worked out at 79%; in test [3], 60%; in test [4], 69%.
